Experimental data as given in the SangsterLogP compilation.

Assay: method code SF, from DOI: 10.1111/j.2042-7158.1992.tb14369.x, PMID: 1350635
Details: pH 13.0

Q: With `CC(C)(C)NCC(O)COc1ccccc1C#N` (configuration not stated) as the compound, how does the logD read?
A: 1.97

Assay: method code SF-AS, from DOI: 10.1111/j.2042-7158.1992.tb14369.x, PMID: 1350635
Details: pH 13.0

Q: With `CC(C)NCC(O)COc1ccccc1C1CC2CCC1C2` (configuration not stated) as the compound, how does the logD read?
A: 4.17

Q: For `CC(=O)c1cc2cccc(OCC(O)CNC(C)C)c2o1` (configuration not stated), which logD is on record?
A: 2.02

Q: Which logD does the source give for `CC(C)NC[C@H](O)COc1ccc(OCCOCCc2ccc(F)cc2)cc1` here?
A: 3.7

Q: For `CC(C)NCC(O)COc1ccccc1C1CC1` (configuration not stated), which logD is on record?
A: 3.07

Q: For `C#CCOc1ccccc1OCC(O)CNC(C)(C)C` (configuration not stated), which logD is on record?
A: 2.32

Q: For `COc1ccccc1OCC(O)CNC(C)C` (configuration not stated), which logD is on record?
A: 1.69

Q: Which logD does the source give for `CC(C)NCC(O)COc1ccc(CCOCC2CC2)cc1` (configuration not stated) here?
A: 2.81

Q: With `CC(C)NCC(O)COc1ccc(COCCOC(C)C)cc1` (configuration not stated) as the compound, how does the logD read?
A: 1.87

Q: Which logD does the source give for `CNC(=O)COc1ccccc1OCC(O)CNC(C)(C)C` (configuration not stated) here?
A: 1.36

Q: Which logD does the source give for `CC(=O)Nc1ccc(OCC(O)CNC(C)C)c(C(C)=O)c1` (configuration not stated) here?
A: 0.94

Q: With `Cc1cc2c(OCC(O)CNC(C)C)cccc2[nH]1` (configuration not stated) as the compound, how does the logD read?
A: 2.3
